Assay results as given in ChEMBL document CHEMBL2040766, “Hemisynthesis and antiproliferative properties of mono-[O-(14-benzoylaconine-8-yl)]esters and bis-[O-(14-benzoylaconine-8-yl)]esters” (Eur J Med Chem, 2012).

Columns and labels:
A549 = assay: Cytotoxicity against human A549 cells incubated for 24 hrs measured 48 hrs post cell re-growth post compound dose by MTT assay; format: functional, cell-based
HCT-15 [1] = assay: Cytotoxicity against human HCT15 cells incubated for 24 hrs measured 48 hrs post cell re-growth post compound dose by MTT assay; format: functional, cell-based
MCF7 [2] = assay: Cytotoxicity against human MCF7 cells incubated for 24 hrs measured 48 hrs post cell re-growth post compound dose by MTT assay; format: functional, cell-based
[3] = Toxicity in iv dosed NOD.Cg-Prkdcscid Il2rgtmw/SzJ jax 005557 mouse assessed as maximum tolerated dose at 10 mg/kg, iv administered as weekly four doses starting at day 13 post-tumor grafting; format: organism-based; set-up: dose 10 mg/kg, route intravenous; details: in vivo
Mus musculus [4] = assay: Toxicity in NOD.Cg-Prkdcscid Il2rgtmw/SzJ jax 005557 mouse xenografted with human MCF7 cells assessed as weight loss at 10 mg/kg, iv administered as 5 doses every 4 days starting at day 9 post-tumor grafting relative to vehicle treated control; format: organism-based; set-up: dose 10 mg/kg, route intravenous; details: in vivo, 96 h
Mus musculus [5] = assay: Toxicity in NOD.Cg-Prkdcscid Il2rgtmw/SzJ jax 005557 mouse xenografted with human MCF7 cells assessed as weight loss at 10 mg/kg, iv administered as weekly four doses starting at day 13 post-tumor grafting relative to vehicle treated control; format: organism-based; set-up: dose 10 mg/kg, route intravenous; details: in vivo
[6] = Toxicity in iv dosed NOD.Cg-Prkdcscid Il2rgtmw/SzJ jax 005557 mouse assessed as maximum tolerated dose at 10 mg/kg, iv administered as 5 doses every 4 days starting at day 9 post-tumor grafting; format: organism-based; set-up: dose 10 mg/kg, route intravenous; details: in vivo
HCT-15 [7] = assay: Antitumor activity against human HCT15 cells xenografted in NOD.Cg-Prkdcscid Il2rgtmw/SzJ jax 005557 mouse assessed as tumor weight at 10 mg/kg, iv administered as 5 doses every 3 days starting at day 7 post-tumor grafting measured on day 25 relative to vehicle treated control; format: functional
Mus musculus [8] = assay: Toxicity in NOD.Cg-Prkdcscid Il2rgtmw/SzJ jax 005557 mouse xenografted with human MCF7 cells assessed as induction of toxic effect at 10 mg/kg, iv administered as 5 doses every 4 days starting at day 9 post-tumor grafting relative to vehicle treated control; format: organism-based; set-up: dose 10 mg/kg, route intravenous; details: in vivo, 96 h
Mus musculus [9] = assay: Toxicity in NOD.Cg-Prkdcscid Il2rgtmw/SzJ jax 005557 mouse xenografted with human MCF7 cells assessed as mortality incidence at 10 mg/kg, iv administered as 5 doses every 4 days starting at day 9 post-tumor grafting relative to vehicle treated control; format: organism-based; set-up: dose 10 mg/kg, route intravenous; details: in vivo, 96 h
MCF7 [10] = assay: Antitumor activity against human MCF7 cells xenografted in NOD.Cg-Prkdcscid Il2rgtmw/SzJ jax 005557 mouse assessed as tumor weight at 10 mg/kg, iv administered as weekly four doses starting at day 13 post-tumor grafting measured on day 45 relative to vehicle treated control; format: functional
Mus musculus [11] = assay: Toxicity in NOD.Cg-Prkdcscid Il2rgtmw/SzJ jax 005557 mouse xenografted with human MCF7 cells assessed as mortality incidence at 10 mg/kg, iv administered as weekly four doses starting at day 13 post-tumor grafting relative to vehicle treated control; format: organism-based; set-up: dose 10 mg/kg, route intravenous; details: in vivo
Mus musculus [12] = assay: Toxicity in NOD.Cg-Prkdcscid Il2rgtmw/SzJ jax 005557 mouse xenografted with human HCT15 cells assessed as induction of toxic effect at 10 mg/kg, iv administered as 5 doses every 3 days starting at day 7 post-tumor grafting relative to vehicle treated control; format: organism-based, HCT-15; set-up: dose 10 mg/kg, route intravenous; details: in vivo, 72 h
Mus musculus [13] = assay: Toxicity in NOD.Cg-Prkdcscid Il2rgtmw/SzJ jax 005557 mouse xenografted with human HCT15 cells assessed as weight loss at 10 mg/kg, iv administered as 5 doses every 3 days starting at day 7 post-tumor grafting relative to vehicle treated control; format: organism-based, HCT-15; set-up: dose 10 mg/kg, route intravenous; details: in vivo, 72 h
MCF7 [14] = assay: Antitumor activity against human MCF7 cells xenografted in NOD.Cg-Prkdcscid Il2rgtmw/SzJ jax 005557 mouse assessed as tumor weight at 10 mg/kg, iv administered as 5 doses every 4 days starting at day 9 post-tumor grafting measured on day 45 relative to vehicle treated control; format: functional
Mus musculus [15] = assay: Toxicity in NOD.Cg-Prkdcscid Il2rgtmw/SzJ jax 005557 mouse xenografted with human HCT15 cells assessed as mortality incidence at 10 mg/kg, iv administered as 5 doses every 3 days starting at day 7 post-tumor grafting relative to vehicle treated control; format: organism-based, HCT-15; set-up: dose 10 mg/kg, route intravenous; details: in vivo, 72 h
[16] = Toxicity in iv dosed NOD.Cg-Prkdcscid Il2rgtmw/SzJ jax 005557 mouse assessed as maximum tolerated dose at 10 mg/kg, iv administered as 5 doses every 3 days starting at day 7 post-tumor grafting; format: organism-based; set-up: dose 10 mg/kg, route intravenous; details: in vivo
Mus musculus [17] = assay: Toxicity in NOD.Cg-Prkdcscid Il2rgtmw/SzJ jax 005557 mouse xenografted with human MCF7 cells assessed as induction of toxic effect at 10 mg/kg, iv administered as weekly four doses starting at day 13 post-tumor grafting relative to vehicle treated control; format: organism-based; set-up: dose 10 mg/kg, route intravenous; details: in vivo

Row | Structure (SMILES) | IC50 (A549) [µM] | IC50 (HCT-15 [1]) [µM] | IC50 (MCF7 [2]) [µM] | also measured
1 | CCN1C[C@]2(COC)[C@H](O)C[C@H](OC)[C@]34C1[C@H]([C@H](OC)[C@H]23)[C@]1(OC(=O)CCC(=O)O[C@]23[C@H]5[C@@H](OC(=O)c6ccccc6)[C@](O)(C[C@H]5[C@@]56C7[C@@H]2[C@H](OC)[C@@H]5[C@](COC)(CN7CC)[C@H](O)C[C@@H]6OC)[C@@H](OC)[C@@H]3O)[C@H]2[C@@H](OC(=O)c3ccccc3)[C@](O)(C[C@H]24)[C@@H](OC)[C@@H]1O | > 60 | > 60 | > 60 | –
2 | CCN1C[C@]2(COC)[C@H](O)C[C@H](OC)[C@]34C1[C@H]([C@H](OC)[C@H]23)[C@]1(OC(=O)CCCCCC(=O)O[C@]23[C@H]5[C@@H](OC(=O)c6ccccc6)[C@](O)(C[C@H]5[C@@]56C7[C@@H]2[C@H](OC)[C@@H]5[C@](COC)(CN7CC)[C@H](O)C[C@@H]6OC)[C@@H](OC)[C@@H]3O)[C@H]2[C@@H](OC(=O)c3ccccc3)[C@](O)(C[C@H]24)[C@@H](OC)[C@@H]1O | 9.5 | 4.64 | 7.56 | –
3 | CCN1C[C@]2(COC)[C@H](O)C[C@H](OC)[C@]34C1[C@H]([C@H](OC)[C@H]23)[C@]1(OC(=O)CCCCC(=O)O)[C@H]2[C@@H](OC(=O)c3ccccc3)[C@](O)(C[C@H]24)[C@@H](OC)[C@@H]1O | > 60 | > 60 | > 60 | –
4 | CCN1C[C@]2(COC)[C@H](O)C[C@H](OC)[C@]34C1[C@H]([C@H](OC)[C@H]23)[C@]1(OC(=O)CCC(=O)O)[C@H]2[C@@H](OC(=O)c3ccccc3)[C@](O)(C[C@H]24)[C@@H](OC)[C@@H]1O | > 60 | > 60 | > 60 | –
5 | CCN1C[C@]2(COC)[C@H](O)C[C@H](OC)[C@]34C1[C@H]([C@H](OC)[C@H]23)[C@]1(OC(=O)CCCCCC(=O)O)[C@H]2[C@@H](OC(=O)c3ccccc3)[C@](O)(C[C@H]24)[C@@H](OC)[C@@H]1O | > 60 | > 60 | > 60 | –
6 | CCN1C[C@]2(COC)[C@H](O)C[C@H](OC)[C@]34C1[C@H]([C@H](OC)[C@H]23)[C@]1(OC(=O)CCCCCCCCCC(=O)O)[C@H]2[C@@H](OC(=O)c3ccccc3)[C@](O)(C[C@H]24)[C@@H](OC)[C@@H]1O | > 60 | > 60 | > 60 | –
7 | CCN1C[C@]2(COC)[C@H](O)C[C@H](OC)[C@]34C1[C@H]([C@H](OC)[C@H]23)[C@]1(OC(=O)CCCCC(=O)O[C@]23[C@H]5[C@@H](OC(=O)c6ccccc6)[C@](O)(C[C@H]5[C@@]56C7[C@@H]2[C@H](OC)[C@@H]5[C@](COC)(CN7CC)[C@H](O)C[C@@H]6OC)[C@@H](OC)[C@@H]3O)[C@H]2[C@@H](OC(=O)c3ccccc3)[C@](O)(C[C@H]24)[C@@H](OC)[C@@H]1O | > 60 | > 60 | > 60 | –
8 | CCN1C[C@]2(COC)[C@H](O)C[C@H](OC)[C@]34C1[C@H]([C@H](OC)[C@H]23)[C@]1(OC(=O)CCCCCCCCC(=O)O)[C@H]2[C@@H](OC(=O)c3ccccc3)[C@](O)(C[C@H]24)[C@@H](OC)[C@@H]1O | > 60 | > 60 | > 60 | –
9 | CCN1C[C@]2(COC)[C@H](O)C[C@H](OC)[C@]34C1[C@H]([C@H](OC)[C@H]23)[C@]1(OC(=O)CCCC(=O)O[C@]23[C@H]5[C@@H](OC(=O)c6ccccc6)[C@](O)(C[C@H]5[C@@]56C7[C@@H]2[C@H](OC)[C@@H]5[C@](COC)(CN7CC)[C@H](O)C[C@@H]6OC)[C@@H](OC)[C@@H]3O)[C@H]2[C@@H](OC(=O)c3ccccc3)[C@](O)(C[C@H]24)[C@@H](OC)[C@@H]1O | > 60 | > 60 | > 60 | –
10 | CCN1C[C@]2(COC)[C@H](O)C[C@H](OC)[C@]34C1[C@H]([C@H](OC)[C@H]23)[C@]1(OC(=O)CCCCCCCC(=O)O)[C@H]2[C@@H](OC(=O)c3ccccc3)[C@](O)(C[C@H]24)[C@@H](OC)[C@@H]1O | > 60 | > 60 | > 60 | –
11 | CCN1C[C@]2(COC)[C@H](O)C[C@H](OC)[C@]34C1[C@H]([C@H](OC)[C@H]23)[C@]1(OC(=O)CCCCCCC(=O)O[C@]23[C@H]5[C@@H](OC(=O)c6ccccc6)[C@](O)(C[C@H]5[C@@]56C7[C@@H]2[C@H](OC)[C@@H]5[C@](COC)(CN7CC)[C@H](O)C[C@@H]6OC)[C@@H](OC)[C@@H]3O)[C@H]2[C@@H](OC(=O)c3ccccc3)[C@](O)(C[C@H]24)[C@@H](OC)[C@@H]1O | 7.53 | 4.01 | 6.9 | MTD [3]: 15 mg/kg; T/C (Mus musculus [4]): 0%; T/C (Mus musculus [5]): 0%; MTD at 96 h [6]: 15 mg/kg; T/C (HCT-15 [7]): 49%; Activity (Mus musculus [8]): Non-toxic; Activity (Mus musculus [9]): Non-toxic; T/C (MCF7 [10]): 56%; Activity (Mus musculus [11]): Non-toxic; Activity (Mus musculus [12]): Non-toxic; T/C (Mus musculus [13]): 9.34%; T/C (MCF7 [14]): 36%; Activity (Mus musculus [15]): Non-toxic; MTD at 72 h [16]: 15 mg/kg; Activity (Mus musculus [17]): Non-toxic
12 | CCN1C[C@]2(COC)[C@H](O)C[C@H](OC)[C@]34C1[C@H]([C@H](OC)[C@H]23)[C@]1(OC(=O)CCCCCCC(=O)O)[C@H]2[C@@H](OC(=O)c3ccccc3)[C@](O)(C[C@H]24)[C@@H](OC)[C@@H]1O | > 60 | > 60 | > 60 | –
13 | CCN1C[C@]2(COC)[C@H](O)C[C@H](OC)[C@]34C1[C@H]([C@H](OC)[C@H]23)[C@]1(OC(=O)CCCC(=O)O)[C@H]2[C@@H](OC(=O)c3ccccc3)[C@](O)(C[C@H]24)[C@@H](OC)[C@@H]1O | > 60 | > 60 | > 60 | –
14 | CCN1C[C@]2(COC)[C@H](O)C[C@H](OC)[C@]34C1[C@H]([C@H](OC)[C@H]23)[C@]1(OC(=O)CCCCCCCC(=O)O[C@]23[C@H]5[C@@H](OC(=O)c6ccccc6)[C@](O)(C[C@H]5[C@@]56C7[C@@H]2[C@H](OC)[C@@H]5[C@](COC)(CN7CC)[C@H](O)C[C@@H]6OC)[C@@H](OC)[C@@H]3O)[C@H]2[C@@H](OC(=O)c3ccccc3)[C@](O)(C[C@H]24)[C@@H](OC)[C@@H]1O | 19.5 | 28 | 16.9 | –
